Data on 35 compounds can be found in patent US8410112B2, “Compounds useful as inhibitors of ATR kinase” (Vertex Pharmaceuticals Incorporated, priority 2008, dated 2013).

Each structure is given as a SMILES string.

For the test, the target named is T1, full-length ATR (Homo sapiens, UniProt Q13535).
T1 construct: in the presence of 5 nM full-length ATR
T1 sequence (Q13535 whole entry): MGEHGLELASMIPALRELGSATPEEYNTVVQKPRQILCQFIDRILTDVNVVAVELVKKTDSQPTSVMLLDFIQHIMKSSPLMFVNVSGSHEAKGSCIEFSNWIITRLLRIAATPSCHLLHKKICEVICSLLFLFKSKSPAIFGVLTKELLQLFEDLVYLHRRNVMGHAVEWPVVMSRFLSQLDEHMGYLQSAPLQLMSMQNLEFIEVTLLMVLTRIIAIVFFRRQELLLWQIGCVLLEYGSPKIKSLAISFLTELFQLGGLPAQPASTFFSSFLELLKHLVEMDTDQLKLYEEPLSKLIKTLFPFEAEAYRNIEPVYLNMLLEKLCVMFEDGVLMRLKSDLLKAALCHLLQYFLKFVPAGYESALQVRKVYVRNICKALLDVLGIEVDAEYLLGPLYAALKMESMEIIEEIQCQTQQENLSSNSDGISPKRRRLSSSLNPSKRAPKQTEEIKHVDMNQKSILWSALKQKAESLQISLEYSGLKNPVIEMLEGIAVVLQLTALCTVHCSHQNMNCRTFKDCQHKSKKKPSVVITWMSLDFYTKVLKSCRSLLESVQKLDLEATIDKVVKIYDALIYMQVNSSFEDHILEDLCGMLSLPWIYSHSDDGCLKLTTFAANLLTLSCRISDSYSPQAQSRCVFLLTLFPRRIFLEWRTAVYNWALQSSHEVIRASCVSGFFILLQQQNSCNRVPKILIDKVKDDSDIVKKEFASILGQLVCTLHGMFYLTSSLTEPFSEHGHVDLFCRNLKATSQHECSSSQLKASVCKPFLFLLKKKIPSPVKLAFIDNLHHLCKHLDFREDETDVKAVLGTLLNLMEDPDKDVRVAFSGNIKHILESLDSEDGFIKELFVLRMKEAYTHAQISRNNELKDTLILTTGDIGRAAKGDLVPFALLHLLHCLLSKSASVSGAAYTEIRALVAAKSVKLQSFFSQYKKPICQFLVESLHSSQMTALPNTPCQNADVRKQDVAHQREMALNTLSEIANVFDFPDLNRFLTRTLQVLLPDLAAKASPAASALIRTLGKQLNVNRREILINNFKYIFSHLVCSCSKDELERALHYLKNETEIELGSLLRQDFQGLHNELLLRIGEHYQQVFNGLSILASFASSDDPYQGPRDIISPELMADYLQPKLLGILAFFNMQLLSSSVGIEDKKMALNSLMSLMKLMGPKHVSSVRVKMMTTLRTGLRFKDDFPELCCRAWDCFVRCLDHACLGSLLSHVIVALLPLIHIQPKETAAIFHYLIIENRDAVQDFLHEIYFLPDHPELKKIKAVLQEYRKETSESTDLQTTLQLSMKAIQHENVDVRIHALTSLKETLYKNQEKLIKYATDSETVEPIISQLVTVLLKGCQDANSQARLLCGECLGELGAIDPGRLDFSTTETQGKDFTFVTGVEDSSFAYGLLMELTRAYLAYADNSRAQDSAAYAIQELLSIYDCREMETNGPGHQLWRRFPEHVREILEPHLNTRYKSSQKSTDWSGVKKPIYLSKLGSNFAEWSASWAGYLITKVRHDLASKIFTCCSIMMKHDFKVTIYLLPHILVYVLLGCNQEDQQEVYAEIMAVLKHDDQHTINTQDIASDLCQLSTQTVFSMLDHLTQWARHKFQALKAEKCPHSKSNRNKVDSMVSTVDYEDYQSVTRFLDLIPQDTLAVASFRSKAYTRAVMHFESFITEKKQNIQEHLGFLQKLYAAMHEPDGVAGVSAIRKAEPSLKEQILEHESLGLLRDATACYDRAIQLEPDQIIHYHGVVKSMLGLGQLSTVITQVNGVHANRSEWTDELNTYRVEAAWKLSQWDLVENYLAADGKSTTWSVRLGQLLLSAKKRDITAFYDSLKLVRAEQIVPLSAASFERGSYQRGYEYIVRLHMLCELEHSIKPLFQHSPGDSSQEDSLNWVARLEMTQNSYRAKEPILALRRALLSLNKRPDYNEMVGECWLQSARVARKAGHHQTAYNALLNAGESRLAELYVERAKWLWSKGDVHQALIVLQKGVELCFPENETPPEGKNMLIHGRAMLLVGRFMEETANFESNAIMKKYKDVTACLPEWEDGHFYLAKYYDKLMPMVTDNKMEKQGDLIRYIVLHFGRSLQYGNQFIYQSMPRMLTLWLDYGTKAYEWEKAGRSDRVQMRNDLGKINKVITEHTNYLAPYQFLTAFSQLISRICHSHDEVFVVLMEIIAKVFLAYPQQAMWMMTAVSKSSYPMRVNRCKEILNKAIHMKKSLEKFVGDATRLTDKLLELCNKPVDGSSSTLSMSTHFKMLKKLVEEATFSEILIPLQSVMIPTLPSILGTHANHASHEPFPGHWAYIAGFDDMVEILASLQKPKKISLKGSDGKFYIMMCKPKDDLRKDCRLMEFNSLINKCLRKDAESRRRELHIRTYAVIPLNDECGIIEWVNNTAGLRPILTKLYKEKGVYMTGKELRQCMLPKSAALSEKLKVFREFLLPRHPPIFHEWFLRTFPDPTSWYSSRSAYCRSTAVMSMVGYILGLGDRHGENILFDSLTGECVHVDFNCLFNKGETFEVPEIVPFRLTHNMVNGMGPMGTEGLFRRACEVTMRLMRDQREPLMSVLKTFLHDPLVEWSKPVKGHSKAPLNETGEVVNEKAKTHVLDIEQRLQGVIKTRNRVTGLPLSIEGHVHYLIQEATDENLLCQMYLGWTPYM
Briefly: ATR Inhibition Assay (radioactive-phosphate incorporation). Type of test: biochemical. As to conditions: Ki(app); 5 nM full-length ATR, 10 μM ATP, 800 μM target peptide, 25° C. Summed up:
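Buffer was 50 mM Tris/HCl pH 7.5, 10 mM MgCl2, 1 mM DTT, with 5 nM enzyme, 10 μM [γ-33P]ATP and 800 μM target peptide at 25 °C. Compound was pre-incubated 10 min before ATP start, and the reaction was stopped after 24 h. Phosphocellulose filter capture; Ki(app) came from non-linear regression of background-corrected initial rates.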
Regarding `Nc1ncc(C2=CCN(C(=O)c3c(F)cccc3F)CC2)nc1-c1nnc(-c2ccccc2)o1` [Compound I-133, (4-(5-amino-6-(5-phenyl-1,3,4-oxadiazol-2-yl)pyrazin-2-yl)-5,6-dihydropyridin-1(2H)-yl)(2,6-difluorophenyl)methanone], the Ki is less than 100 nM.

Consider `CCC(=O)N(C)C1CCN(c2cnc(N)c(-c3nnc(-c4ccc(CNC)cc4)o3)n2)CC1` [Compound I-365, N-(1-(5-Amino-6-(5-(4-((methylamino)methyl)phenyl)-1,3,4-oxadiazol-2-yl)pyrazin-2-yl)piperidin-4-yl)-N-methylpropionamide], for which the Ki lay within 100 to 1000 nM.

In the case of `Nc1ncc(N2CCN(S(=O)(=O)c3cccnc3)CC2)nc1C(=O)Nc1ccccn1` [Compound I-233, 3-amino-N-(pyridin-2-yl)-6-(4-(pyridin-3-ylsulfonyl)piperazin-1-yl)pyrazine-2-carboxamide], the Ki fell in the range of 100 to 1000 nM.

Take `Nc1ncc(N2CCN(C(=O)COc3ccccc3)CC2)nc1-c1nc2ccccc2[nH]1` [Compound I-273, 1-(4-(5-amino-6-(1H-benzo[d]imidazol-2-yl)pyrazin-2-yl)piperazin-1-yl)-2-phenoxyethanone]: the Ki lay within 1000 to 10000 nM.

Turning to `CCS(=O)(=O)N1CCN(c2cnc(N)c(-c3cn(-c4ccc(N)cc4)nn3)n2)CC1` [Compound I-160, 3-(1-(4-aminophenyl)-1H-1,2,3-triazol-4-yl)-5-(4-(ethylsulfonyl)piperazin-1-yl)pyrazin-2-amine], the Ki lay within 100 to 1000 nM.

As for `COCCOC(=O)N1CCN(c2cnc(N)c(-c3nnc(-c4ccccc4)o3)n2)CC1` [Compound I-221, 2-methoxyethyl 4-(5-amino-6-(5-phenyl-1,3,4-oxadiazol-2-yl)pyrazin-2-yl)piperazine-1-carboxylate], the Ki lay in the range of 100 to 1000 nM.

With `CCS(=O)(=O)N1CC=C(c2cnc(N)c(-c3nc4ccc(F)c(F)c4[nH]3)n2)CC1` [Compound I-153, 3-(6,7-difluoro-1H-benzo[d]imidazol-2-yl)-5-(1-(ethylsulfonyl)-1,2,3,6-tetrahydropyridin-4-yl)pyrazin-2-amine], the Ki was less than 100 nM.

In the case of `CCNC(=O)O[C@H]1CCN(c2cnc(N)c(-c3nnc(-c4ccc(CNC)cc4)o3)n2)C1` [Compound I-372, [(3S)-1-[5-Amino-6-[5-[4-(methylaminomethyl)phenyl]-1,3,4-oxadiazol-2-yl]pyrazin-2-yl]pyrrolidin-3-yl]N-ethylcarbamate], the Ki was in the range of 100 to 1000 nM.

For `Cc1ccc2nc(-c3nc(N4CCN(c5ccccc5F)CC4)cnc3N)[nH]c2c1` [Compound I-45, 5-(4-(2-fluorophenyl)piperazin-1-yl)-3-(6-methyl-1H-benzo[d]imidazol-2-yl)pyrazin-2-amine], the Ki lay in the range of 1000 to 10000 nM.

On to `Cc1ccc2nc(-c3nc(N4CCSCC4)cnc3N)[nH]c2c1` [Compound I-8, 3-(6-methyl-1H-benzo[d]imidazol-2-yl)-5-thiomorpholinopyrazin-2-amine], for which the Ki lay in the range of 100 to 1000 nM.

With `COCC(=O)N1CCN(c2cnc(N)c(C(=O)Nc3ccccn3)n2)CC1` [Compound I-147, 3-amino-6-(4-(2-methoxyethanoyl)piperazin-1-yl)-N-(pyridin-2-yl)pyrazine-2-carboxamide], the Ki was 1000 to 10000 nM.

Regarding `Nc1ncc(C2=CCN(C(=O)C3CC3)CC2)nc1-c1nc2ccccc2[nH]1` [Compound I-284, [4-[5-amino-6-(1H-benzimidazol-2-yl)pyrazin-2-yl]-3,6-dihydro-2H-pyridin-1-yl]-cyclopropyl-methanone], the Ki is less than 100 nM.

With `Nc1ncc(C2=CCN(C(=O)c3cccnc3)CC2)nc1-c1nc2ccccc2[nH]1` [Compound I-191], the Ki was in the range of 100 to 1000 nM.

With `CCCS(=O)(=O)N1CCN(c2cnc(N)c(-c3nc4ccccc4[nH]3)n2)CC1` [Compound I-95, 3-(1H-benzo[d]imidazol-2-yl)-5-(4-(propylsulfonyl)piperazin-1-yl)pyrazin-2-amine], the Ki lay in the range of 100 to 1000 nM.

Turning to `Nc1ncc(C2=CCN(C(=O)c3ccccn3)CC2)nc1-c1nc2ccccc2[nH]1` [Compound I-139, (4-(5-amino-6-(1H-benzo[d]imidazol-2-yl)pyrazin-2-yl)-5,6-dihydropyridin-1(2H)-yl)(pyridin-2-yl)methanone], the Ki was less than 100 nM.

Consider `CNCc1ccc(-c2nnc(-c3nc(N4CCC(N5CCCC5=O)CC4)cnc3N)o2)cc1` [Compound I-364, 1-(1-(5-Amino-6-(5-(4-((methylamino)methyl)phenyl)-1,3,4-oxadiazol-2-yl)pyrazin-2-yl)piperidin-4-yl)pyrrolidin-2-one], for which the Ki is 100 to 1000 nM.

Take `Nc1ncc(N2CCN(S(=O)(=O)Cc3ccccc3)CC2)nc1-c1nc2ccccc2[nH]1` [Compound I-106, 3-(1H-benzo[d]imidazol-2-yl)-5-(4-(benzylsulfonyl)piperazin-1-yl)pyrazin-2-amine]: the Ki was 100 to 1000 nM.

Consider `CNC(=O)C1CCN(c2cnc(N)c(-c3nc4ccc(C)cc4[nH]3)n2)CC1` [Compound I-13, 1-(5-amino-6-(6-methyl-1H-benzo[d]imidazol-2-yl)pyrazin-2-yl)-N-methylpiperidine-4-carboxamide], for which the Ki was 1000 to 10000 nM.

For the compound `Nc1ncc(N2CCN(C(=O)c3ccccn3)CC2)nc1C(=O)Nc1ccccn1` [Compound I-148, 3-amino-N-(pyridin-2-yl)-6-(4-(pyridine-2-carbonyl)piperazin-1-yl)pyrazine-2-carboxamide], the Ki fell in the range of 1000 to 10000 nM.

Turning to `Nc1ncc(C2=CCN(S(=O)(=O)c3cccnc3)CC2)nc1-c1nnc(-c2ccccc2)o1` [Compound I-222, 3-(5-phenyl-1,3,4-oxadiazol-2-yl)-5-(1-(pyridin-3-ylsulfonyl)-1,2,3,6-tetrahydropyridin-4-yl)pyrazin-2-amine], the Ki was less than 100 nM.

In the case of `CCC(=O)N1CCC(c2cnc(N)c(-c3nnc(-c4ccc(CNC)cc4)o3)n2)CC1` [Compound I-353, 1-(4-(5-Amino-6-(5-(4-((methylamino)methyl)phenyl)-1,3,4-oxadiazol-2-yl)pyrazin-2-yl)piperidin-1-yl)propan-1-one], the Ki was 100 to 1000 nM.

On to `Nc1ncc(C2=CCN(S(=O)(=O)c3cccs3)CC2)nc1-c1nnc(-c2ccccc2)o1` [Compound I-245, 3-(5-phenyl-1,3,4-oxadiazol-2-yl)-5-(1-(thiophen-2-ylsulfonyl)-1,2,3,6-tetrahydropyridin-4-yl)pyrazin-2-amine], for which the Ki is less than 100 nM.

Consider `Nc1ncc(N2CCN(C(=O)C3CCCCC3)CC2)nc1C(=O)Nc1ccccn1` [Compound I-256, 3-amino-6-(4-(cyclohexanecarbonyl)piperazin-1-yl)-N-(pyridin-2-yl)pyrazine-2-carboxamide], for which the Ki fell in the range of 100 to 1000 nM.

With `CCS(=O)(=O)N1CCN(c2cnc(N)c(-c3cc(-c4ccccc4)ncn3)n2)CC1` [Compound I-74, 5-(4-(ethylsulfonyl)piperazin-1-yl)-3-(6-phenylpyrimidin-4-yl)pyrazin-2-amine], the Ki fell in the range of 100 to 1000 nM.

On to `Nc1ncc(C2=CCN(C(=O)C3CCCCC3)CC2)nc1-c1nc2ccccc2[nH]1` [Compound I-259, (4-(5-amino-6-(1H-benzo[d]imidazol-2-yl)pyrazin-2-yl)-5,6-dihydropyridin-1(2H)-yl)(cyclohexyl)methanone], for which the Ki was less than 100 nM.

As for `CN(C)S(=O)(=O)N1CCN(c2cnc(N)c(-c3nc4ccccc4[nH]3)n2)CC1` [Compound I-88, 4-(5-amino-6-(1H-benzo[d]imidazol-2-yl)pyrazin-2-yl)-N,N-dimethylpiperazine-1-sulfonamide], the Ki fell in the range of 100 to 1000 nM.

As for `Nc1ncc(N2CCN(CC(=O)N3CCOCC3)CC2)nc1-c1nnc(-c2ccccc2)o1` [Compound I-303, 2-[4-[5-amino-6-(5-phenyl-1,3,4-oxadiazol-2-yl)pyrazin-2-yl]piperazin-1-yl]-1-morpholino-ethanone], the Ki was in the range of 100 to 1000 nM.

In the case of `CCOC(=O)C1CC1c1cnc(N)c(-c2nnc(-c3ccccc3)o2)n1` (centres unmarked) [Compound I-337, Ethyl 2-(5-amino-6-(5-phenyl-1,3,4-oxadiazol-2-yl)pyrazin-2-yl)cyclopropanecarboxylate], the Ki is 100 to 1000 nM.

For `Nc1ncc(N2CC[C@H](NC(=O)C3CCCC3)C2)nc1-c1nc2ccccc2[nH]1` [Compound I-204, (S)-N-(1-(5-amino-6-(1H-benzo[d]imidazol-2-yl)pyrazin-2-yl)pyrrolidin-3-yl)cyclopentanecarboxamide], the Ki is 100 to 1000 nM.

In the case of `N#CCN1CC=C(c2cnc(N)c(-c3nc4ccccc4[nH]3)n2)CC1` [Compound I-76, 2-(4-(5-amino-6-(1H-benzo[d]imidazol-2-yl)pyrazin-2-yl)-5,6-dihydropyridin-1(2H)-yl)ethanenitrile], the Ki fell in the range of 100 to 1000 nM.

Consider `CCS(=O)(=O)N1CC=C(c2cnc(N)c(-c3nc4ccccn4n3)n2)CC1` [Compound I-276, 3-([1,2,4]triazolo[1,5-a]pyridin-2-yl)-5-(1-(ethylsulfonyl)-1,2,3,6-tetrahydropyridin-4-yl)pyrazin-2-amine], for which the Ki lay within 1000 to 10000 nM.

In the case of `COc1cccc(N2CCN(c3cnc(N)c(-c4nc5ccc(C)cc5[nH]4)n3)CC2)c1` [Compound I-48, 5-(4-(3-methoxyphenyl)piperazin-1-yl)-3-(6-methyl-1H-benzo[d]imidazol-2-yl)pyrazin-2-amine], the Ki lay in the range of 100 to 1000 nM.

Take `Nc1ncc(N2CCN(C(=O)C3CCCCC3)CC2)nc1-c1nc2ccccc2[nH]1` [Compound I-112, (4-(5-amino-6-(1H-benzo[d]imidazol-2-yl)pyrazin-2-yl)piperazin-1-yl)(cyclohexyl)methanone]: the Ki lay within 100 to 1000 nM.

For `CCOC(=O)N1CCN(c2cnc(N)c(-c3nnc(-c4ccccc4)o3)n2)CC1` [Compound I-232, ethyl 4-(5-amino-6-(5-phenyl-1,3,4-oxadiazol-2-yl)pyrazin-2-yl)piperazine-1-carboxylate], the Ki was in the range of 100 to 1000 nM.

With `Cc1cccc(C)c1C(=O)N1CCN(c2cnc(N)c(C(=O)Nc3ccccn3)n2)CC1` [Compound I-262, 3-amino-6-(4-(2,6-dimethylphenylcarbonyl)piperazin-1-yl)-N-(pyridin-2-yl)pyrazine-2-carboxamide], the Ki lay within 100 to 1000 nM.
